US5114961A, “2,5-diaryl tetrahydrofurans and analogs thereof as PAF antagonists” (Merck & Co., Inc., priority 1990, dated 1992)

These compounds were tested against T1, PAF specific receptor binding site (human platelet membranes) (Homo sapiens, UniProt P25105) (assay: Inhibition of [3H]N-methylcarbamoyl-PAF binding to human platelet membranes). Details: drug concentration of 3 nM, trans configuration.
T1 construct: platelet membranes at a drug concentration of 3 nM; from tissue; host or cells: human platelet plasma membranes
T1 sequence (P25105 whole entry): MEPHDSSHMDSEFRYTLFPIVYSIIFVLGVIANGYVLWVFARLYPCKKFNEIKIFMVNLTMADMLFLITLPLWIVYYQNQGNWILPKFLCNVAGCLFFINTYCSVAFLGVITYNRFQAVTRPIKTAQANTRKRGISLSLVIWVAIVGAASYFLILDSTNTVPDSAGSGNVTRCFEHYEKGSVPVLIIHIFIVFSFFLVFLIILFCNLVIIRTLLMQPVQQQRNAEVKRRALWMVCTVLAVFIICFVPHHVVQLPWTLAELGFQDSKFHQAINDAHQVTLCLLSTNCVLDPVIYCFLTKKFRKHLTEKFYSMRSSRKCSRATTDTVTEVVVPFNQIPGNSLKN
Procedure: The ability of a compound of formula (I) to inhibit the PAF binding to its specific receptor binding site on rabbit or human platelet or PMN plasma membranes was measured by a recently developed assay.
The inhibition of ^3 [H]-PAF or ^3 [H]-N-methyl carbamoyl-TAF binding to the human or rabbit platelet or PMN plasma membrane by a PAF antagonist of formula (I) was determined by a method employing isotopic labeling and filtration techniques. Generally, a series of Tris-buffered solutions of the selected antagonist at predetermined concentrations were prepared. Each of these solutions contains 1 pmole of ^3 H-PAF, a known amount of the test antagonist, and a sufficient amount of the pH 7.5 Tris-buffer solution (10mM Tris, 0.25% bovine serum albumin, and 150 mM NaCl per ml water) to make the final volume of 1 ml. After adding into a set of test tubes each with 100 μg of the platelet plasma membrane suspension (S. B. Hwang, et. al., Biochemistry, Vol. 22 pp. 4756-4763, 1983) and one of the Tris-buffer solutions described above, the resulting mixture in each test tube was incubated at 0° C. for about one hours or until the reaction was complete. Two control samples, one of which (C1) contains all the ingredients described above except the antagonist and the other (C2) contains C1 plus a 100-fold excess of unlabeled PAF, were also prepared and incubated simultaneously with the test samples. After the incubation was completed, the contents of each test tube were filtered under vacuo through a Whatman GF/C fiberglass filter and the residue washed rapidly several times with a total of 20 ml cold (0°-5° C.) Tris-buffer solution. Each washed residue was then suspended in 10 ml scintillation solution (Aquasol 2, New England Nuclear, Conn.) and the radioactivity was counted in a Packard Tri-Carb 460CD Liquid Scintillation System. Defining the counts from a test sample as "Total binding with antagonist"; the counts from the control sample C1, as "Total binding C1 "; and the counts from the control sample C2 as "non-specific binding C2 ", the percent inhibition of each test antagonist can be determined by the following equations: [formula]
Compound `CCCOc1c(OCCN2CCNCC2)cc([C@@H]2CC[C@@H](c3cc(OC)c(OC)c(OC)c3)O2)cc1S(=O)(=O)CC(C)=O` (relative stereo) has an inhibition at 0.003 µM of 34%.
Compound `CCCOc1c(OCCSc2ncc[nH]2)cc([C@H]2CC[C@H](c3cc(OC)c(OC)c(OC)c3)O2)cc1S(=O)(=O)CC(C)O` (relative stereo) [trans-2-[3-(2-Hydroxy-n-propylsulfonyl)-4-n-propoxy-5-{2-(2-imidazolylthio)ethoxy}phenyl]-5-(3,4,5-trimethoxyphenyl)tetrahydrofuran] has an inhibition at 0.003 µM of 34%.
`CCCOc1c(OCCCn2ccnc2)cc([C@H]2CC[C@H](c3cc(OC)c(OC)c(OC)c3)O2)cc1S(=O)(=O)CC(C)O` (relative stereo) [trans-2-[3-(2-Hydroxy-n-propylsulfonyl)-4-n-propoxy-5-{3-(1-imidazolyl)propoxy}phenyl]-5-(3,4,5-trimethoxyphenyl)tetrahydrofuran] gave an inhibition at 0.003 µM of 41%.
In the case of `CCCOc1c(OCCCSc2nc[nH]n2)cc([C@@H]2CC[C@@H](c3cc(OC)c(OC)c(OC)c3)O2)cc1S(=O)(=O)CC(C)O` (relative stereo) [trans-2-[3-(2-Hydroxy-n-propylsulfonyl)-4-n-propoxy-5-{3-(1H-1,2,4-triazolyl-3-thio)propoxy}phenyl]-5-(3,4,5-trimethoxyphenyl)tetrahydrofuran], the inhibition at 0.003 µM is reported as 61%.
With `CCCOc1c(OCCCSc2ncc[nH]2)cc([C@H]2CC[C@H](c3cc(OC)c(OC)c(OC)c3)O2)cc1S(=O)(=O)CC(C)O` (relative stereo) [trans-2-[3-(2-Hydroxy-n-propylsulfonyl)-4-n-propoxy-5-{3-(2-imidazolylthio)n-propoxy}phenyl]-5-(3,4,5-trimethoxyphenyl)tetrahydrofuran] the inhibition at 0.003 µM was 46%.
Compound `CCCOc1c(OCCCCn2ccnc2)cc([C@H]2CC[C@H](c3cc(OC)c(OC)c(OC)c3)O2)cc1S(=O)(=O)CC(C)O` (relative stereo) [trans-2-[3-(2-Hydroxy-n-propylsulfonyl)-4-n-propoxy-5-{4-(1-imidazolyl)butoxy}phenyl]-5-(3,4,5-trimethoxyphenyl)tetrahydrofuran] has an inhibition at 0.003 µM of 43%.
`CCCOc1c(OCCn2ccnc2)cc([C@@H]2CC[C@@H](c3cc(OC)c(OC)c(OC)c3)O2)cc1S(=O)(=O)CC(C)O` (relative stereo) [trans-2-[3-(2-Hydroxy-n-propylsulfonyl-4-n-propoxy-5-{2-(1-imidazolyl)ethoxy}phenyl]-5-(3,4,5-trimethoxyphenyl)tetrahydrofuran] was tested, and the inhibition at 0.003 µM was 48%.
In the case of `CCCOc1c(OCCN2CCOCC2)cc([C@@H]2CC[C@@H](c3cc(OC)c(OC)c(OC)c3)O2)cc1S(=O)(=O)CC(C)O` (relative stereo) [trans-2-[3-(2-Hydroxypropylsulfonyl)-4-n-propoxy-5-{2-(1-morpholino)-n-ethoxy}phenyl]-5-(3,4,5-trimethoxyphenyl)tetrahydrofuran], the inhibition at 0.003 µM is reported as 20%.
`CCCOc1cc([C@@H]2CC[C@@H](c3cc(OC)c(OC)c(OC)c3)O2)cc(S(=O)(=O)CCN2CCOCC2)c1OCCC` (relative stereo) [trans-2-[3-(2-N-Morpholinoethylsulfonyl)-4,5-di-n-propoxyphenyl]-5-(3,4,5-trimethoxyphenyl)tetrahydrofuran] was tested, and the inhibition at 0.003 µM was 17%.
Work on `CCCOc1cc([C@@H]2CC[C@@H](c3cc(OC)c(OC)c(OC)c3)O2)cc(S(=O)(=O)CCN2CCCC2)c1OCCC` (relative stereo) [trans-2-[3-(2-N-Pyrrolidinylethylsulfonyl)-4,5-dipropoxyphenyl]-5-(3,4,5-trimethoxyphenyl) tetrahydrofuran] yielded an inhibition at 0.003 µM of 18%.
With `CCCOc1c(OCCN2CCOCC2)cc([C@@H]2CC[C@@H](c3cc(OC)c(OC)c(OC)c3)O2)cc1S(=O)(=O)CC(C)=O` (relative stereo) [trans-2-[3-(2-Oxopropylsulfonyl)-4-n-propoxy-5-{2-(1-morpholino)-ethoxy}phenyl]-5-(3,4,5-trimethoxyphenyl)tetrahydrofuran] the inhibition at 0.003 µM was 25%.
